The values that follow come from patent US10051861B2, “N-arylamidine-substituted trifluoroethyl sulfide derivatives as acaricides and insecticides” (BAYER CROPSCIENCE AG, priority 2011, dated 2018).

Each structure is given as a SMILES string.

In one test the test system is greenhouse red spider mite (Tetranychus urticae). Put plainly: Tetranychus urticae spray test, OP-resistant (TETRUR), bean leaf disks. It counts as in vivo. The following applies: Tetranychus urticae, foliar, 144 h, application rate 100 g/ha, after 6 days; read-out: efficacy (spider mites killed). On the procedure:
After 6 days, the effect in % is determined.
On to `Cc1cc(F)c(/N=C(\N)c2cccs2)cc1SCC(F)(F)F` [Ia-181], for which the pest or weed control at 100 g/ha came out at 90%.

The same test, now with this note: Tetranychus urticae, foliar, 144 h, application rate 500 g/ha, after 6 days; read-out: efficacy (spider mites killed).
As for `N/C(=N\c1cccc(SCC(F)(F)F)c1)c1ccncc1` [Ia-101], the pest or weed control at 500 g/ha was found to be 90%.

On to `Cc1cc(Cl)c(SCC(F)(F)F)cc1/N=C(\N)C1CC1` [Ia-102], for which the pest or weed control at 500 g/ha came to 90%.

For `N/C(=N\c1cccc(SCC(F)(F)F)c1)c1cccnc1` [Ia-104], the pest or weed control at 500 g/ha turned out to be 90%.

As for `Cc1cc(C)c(SCC(F)(F)F)cc1/N=C1\CCCN1C` [Ia-105], the pest or weed control at 500 g/ha was determined as 90%.

For `Cc1cc(F)c(/N=C(\N(C)C)C2(C(C)C)CC2(Cl)Cl)cc1SCC(F)(F)F` (stereo not drawn) [Ia-106], the pest or weed control at 500 g/ha stood at 90%.

`N/C(=N\c1cccc(SCC(F)(F)F)c1)c1ccc(Cl)nc1` [Ia-107]: the pest or weed control at 500 g/ha was 90%.

`Cc1cc(F)c(/N=C(\NC2CC2)C2CC2)cc1SCC(F)(F)F` [Ia-108]: the pest or weed control at 500 g/ha is 80%.

Take `CN(C)/C(=N/c1cc(SCC(F)(F)F)c(F)cc1Cl)C(F)(F)F` [Ia-109]: the pest or weed control at 500 g/ha was 80%.

On to `Cc1cc(C)c(SCC(F)(F)F)cc1/N=C(\N)C(F)(F)Cl` [Ia-122], for which the pest or weed control at 500 g/ha is 100%.

On to `N/C(=N\c1cc(SCC(F)(F)F)c(Cl)cc1Cl)C1(Cl)CC1` [Ia-123], for which the pest or weed control at 500 g/ha turned out to be 100%.

In the case of `N/C(=N/c1cc(SCC(F)(F)F)c(Cl)cc1Br)C(F)(F)F` [Ia-124], the pest or weed control at 500 g/ha worked out at 100%.

Consider `N/C(=N\c1cc(SCC(F)(F)F)c(Cl)cc1Cl)C(F)F` [Ia-125], for which the pest or weed control at 500 g/ha turned out to be 100%.

With `CN/C(=N/c1cc(SCC(F)(F)F)c(C)cc1F)c1cccc(F)c1` [Ia-126], the pest or weed control at 500 g/ha was 100%.

Turning to `Cc1cc(C)c(SCC(F)(F)F)cc1/N=C(\N)C(F)(F)C(F)(F)F` [Ia-127], the pest or weed control at 500 g/ha was 100%.

As for `Cc1cc(F)c(/N=C(\c2ccc(F)cc2)N(C)C)cc1SCC(F)(F)F` [Ia-128], the pest or weed control at 500 g/ha was found to be 90%.

Regarding `Cc1cc(F)c(/N=C(\c2ccc(C#N)cc2)N(C)C)cc1SCC(F)(F)F` [Ia-131], the pest or weed control at 500 g/ha stood at 100%.

`Cc1cc(F)c(N=C(N)CC#N)cc1SCC(F)(F)F` [Ia-132]: the pest or weed control at 500 g/ha is 100%.

In the case of `Cc1cc(F)c(N=C(N)c2ccccc2F)cc1SCC(F)(F)F` [Ia-133], the pest or weed control at 500 g/ha was found to be 100%.

On to `CN/C(=N\c1cc(SCC(F)(F)F)c(Cl)cc1Cl)c1cccnc1` [Ia-136], for which the pest or weed control at 500 g/ha was found to be 100%.

As to `Cc1cc(F)c(/N=c2\sc(C)c(C)n2CC(F)(F)F)cc1SCC(F)(F)F` [Ia-138], the pest or weed control at 500 g/ha turned out to be 100%.

For `N/C(=N\c1cc(SCC(F)(F)F)c(Cl)cc1Cl)C1CC1(Cl)Cl` (stereo not drawn) [Ia-140], the pest or weed control at 500 g/ha turned out to be 100%.

With `N/C(=N\c1cc(SCC(F)(F)F)c(Cl)cc1Cl)c1cccnc1` [Ia-141], the pest or weed control at 500 g/ha was 100%.

For `CN/C(=N/c1cc(SCC(F)(F)F)c(C)cc1F)c1ccc(F)cc1` [Ia-144], the pest or weed control at 500 g/ha amounted to 100%.

Turning to `Cc1cc(F)c(/N=C(\c2ccccc2F)N(C)C)cc1SCC(F)(F)F` [Ia-147], the pest or weed control at 500 g/ha stood at 100%.

`CN/C(=N\c1cc(SCC(F)(F)F)c(C)cc1F)c1cnc(Cl)c(Cl)c1` [Ia-148]: the pest or weed control at 500 g/ha was determined as 100%.

In the case of `C=CCN/C(=N\c1cc(SCC(F)(F)F)c(C)cc1F)c1ccc(Cl)nc1` [Ia-150], the pest or weed control at 500 g/ha was 100%.

As to `CCN/C(=N\c1cc(SCC(F)(F)F)c(C)cc1F)c1cccnc1` [Ia-151], the pest or weed control at 500 g/ha is 100%.

As for `CN/C(=N\c1cc(SCC(F)(F)F)c(Cl)cc1Cl)c1ccc(Cl)nc1` [Ia-152], the pest or weed control at 500 g/ha was found to be 100%.

For `FC(F)(F)CN/C(=N\c1cc(SCC(F)(F)F)c(Cl)cc1Cl)C1CC1` [Ia-153], the pest or weed control at 500 g/ha is 100%.

In the case of `NN/C(=N/c1cc(SCC(F)(F)F)c(Cl)cc1F)C(F)(F)F` [Ia-155], the pest or weed control at 500 g/ha is 90%.

Consider `N/C(=N\c1cc(SCC(F)(F)F)c(Cl)cc1Cl)C1CCCCC1` [Ia-156], for which the pest or weed control at 500 g/ha amounted to 100%.

`Cc1cc(F)c(/N=C(\NC2CC2)c2ccc(Cl)nc2)cc1SCC(F)(F)F` [Ia-158]: the pest or weed control at 500 g/ha stood at 100%.

Take `CN/C(=N/c1cc(SCC(F)(F)F)c(C)cc1F)c1ccc(C(F)(F)F)nc1` [Ia-159]: the pest or weed control at 500 g/ha is 90%.

`Cc1cc(F)c(/N=C(\c2ccc(C(F)(F)F)nc2)N(C)C)cc1SCC(F)(F)F` [Ia-160]: the pest or weed control at 500 g/ha was found to be 90%.

`Cc1cc(F)c(/N=C(\N)C2CCCC2)cc1SCC(F)(F)F` [Ia-161]: the pest or weed control at 500 g/ha came to 100%.

Turning to `CN/C(=N\c1cc(SCC(F)(F)F)c(C)cc1F)C1CC1` [Ia-163], the pest or weed control at 500 g/ha came to 100%.

On to `Cc1cc(C)c(SCC(F)(F)F)cc1/N=C(/c1cccnc1)N(C)C` [Ia-167], for which the pest or weed control at 500 g/ha worked out at 90%.

For the compound `CN/C(=N/c1cc(SCC(F)(F)F)c(C)cc1F)c1ccc(Cl)nc1` [Ia-168], the pest or weed control at 500 g/ha amounted to 90%.

`Cc1cc(F)c(/N=C(\N)C2CCCCC2)cc1SCC(F)(F)F` [Ia-169]: the pest or weed control at 500 g/ha came to 90%.

On to `N/C(=N\c1cc(SCC(F)(F)F)c(Cl)cc1Cl)c1ccncc1` [Ia-172], for which the pest or weed control at 500 g/ha stood at 90%.

Take `N#CC/C(N)=N/c1cc(SCC(F)(F)F)c(Cl)cc1Cl` [Ia-173]: the pest or weed control at 500 g/ha was 90%.

As to `CN/C(=N\c1cc(SCC(F)(F)F)c(C)cc1C)c1ccc(Cl)cc1` [Ia-176], the pest or weed control at 500 g/ha came to 90%.

In the case of `CN/C(=N\c1cc(SCC(F)(F)F)c(Cl)cc1Cl)c1cccc(Cl)c1` [Ia-177], the pest or weed control at 500 g/ha turned out to be 90%.

In the case of `C/C=C/C=C/C(=N/c1cc(SCC(F)(F)F)c(C)cc1F)NC(C)CC` (stereo not drawn) [Ia-178], the pest or weed control at 500 g/ha is 90%.

Take `Cc1cc(F)c(/N=C(/N2CCCC2)C(F)(F)F)cc1SCC(F)(F)F` [Ia-180]: the pest or weed control at 500 g/ha was found to be 90%.

As to `Cc1cc(C)c(SCC(F)(F)F)cc1/N=C1\SCC(=O)N1C1CC1` [Ia-187], the pest or weed control at 500 g/ha stood at 100%.

Regarding `Cc1cc(F)c(/N=C2\SCC(=O)N2CC(F)F)cc1SCC(F)(F)F` [Ia-188], the pest or weed control at 500 g/ha came out at 100%.

Regarding `Cc1cc(C)c(SCC(F)(F)F)cc1/N=C(\N)c1cnccn1` [Ia-190], the pest or weed control at 500 g/ha was 90%.

For `O=C1CS/C(=N\c2cc(SCC(F)(F)F)c(Cl)cc2F)N1CC(F)(F)F` [Ia-192], the pest or weed control at 500 g/ha was found to be 90%.

Take `Cc1cc(F)c(/N=C(/c2ccccc2)N(C)C)cc1SCC(F)(F)F` [Ia-193]: the pest or weed control at 500 g/ha was found to be 100%.

Regarding `O=C1CS/C(=N\c2ccc(Cl)c(SCC(F)(F)F)c2)N1CC(F)(F)F` [Ia-194], the pest or weed control at 500 g/ha turned out to be 100%.

As to `Cc1ccc(/N=C2\SCC(=O)N2CC(F)(F)F)cc1SCC(F)(F)F` [Ia-195], the pest or weed control at 500 g/ha stood at 100%.

For `O=C1CS/C(=N\c2cc(SCC(F)(F)F)c(Cl)cc2Cl)N1C1CC1` [Ia-196], the pest or weed control at 500 g/ha worked out at 90%.

On to `Cc1cc(F)c(/N=C2\SCC(=O)N2C2CC2)cc1SCC(F)(F)F` [Ia-197], for which the pest or weed control at 500 g/ha stood at 100%.

On to `Cc1cc(F)c(/N=C2\CCCN2C(C)C(F)(F)F)cc1SCC(F)(F)F` (stereo not drawn) [Ia-201], for which the pest or weed control at 500 g/ha turned out to be 100%.

As for `CN/C(=N/c1cc(SCC(F)(F)F)c(C)cc1F)c1cccc(C(F)(F)F)c1` [Ia-203], the pest or weed control at 500 g/ha amounted to 100%.

Turning to `CN(C)/C(=N\c1cc(SCC(F)(F)F)c(Cl)cc1Cl)c1ccccc1` [Ia-205], the pest or weed control at 500 g/ha is 100%.

Regarding `N/C(=N\c1cc(SCC(F)(F)F)c(Cl)cc1Cl)c1cnccn1` [Ia-208], the pest or weed control at 500 g/ha is 100%.

`CN(C)/C(=N\c1cc(SCC(F)(F)F)c(Cl)cc1Cl)c1ccc(Cl)cc1` [Ia-211]: the pest or weed control at 500 g/ha is 100%.

As to `Cc1cc(F)c(/N=C(\c2cccc(C(F)(F)F)c2)N(C)C)cc1SCC(F)(F)F` [Ia-212], the pest or weed control at 500 g/ha came out at 90%.

Turning to `Cc1ccc(/N=C(/N)C(F)(F)F)cc1SCC(F)(F)F` [Ia-213], the pest or weed control at 500 g/ha was 100%.

Take `CN/C(=N\c1cc(SCC(F)(F)F)c(C)cc1C)c1ccccn1` [Ia-214]: the pest or weed control at 500 g/ha was 100%.

As for `Cc1cc(F)c(/N=C(/N)c2ccc(Cl)cc2)cc1SCC(F)(F)F` [Ia-215], the pest or weed control at 500 g/ha was determined as 90%.

As for `Cc1cc(F)c(/N=C(/CC(F)(F)F)N(C)C)cc1SCC(F)(F)F` [Ia-216], the pest or weed control at 500 g/ha is 90%.

Consider `CN/C(=N/c1ccc(Cl)c(SCC(F)(F)F)c1)C(F)(F)F` [Ia-217], for which the pest or weed control at 500 g/ha turned out to be 100%.

As for `CN/C(=N/c1cc(SCC(F)(F)F)c(C)cc1F)c1ccc(Cl)s1` [Ia-218], the pest or weed control at 500 g/ha is 90%.

Regarding `N#CC1(/C(N)=N/c2cc(SCC(F)(F)F)c(Cl)cc2Cl)CC1` [Ia-219], the pest or weed control at 500 g/ha is 90%.

Regarding `Cc1ccc(/C(=N/c2cc(SCC(F)(F)F)c(C)cc2F)N2CCOCC2)cc1` [Ia-221], the pest or weed control at 500 g/ha came to 100%.

As for `Cc1ccc(/N=C(/N(C)C)C(F)(F)F)cc1SCC(F)(F)F` [Ia-222], the pest or weed control at 500 g/ha is 100%.

Consider `Cc1cc(F)c(/N=C(/N)c2ccc([N+](=O)[O-])cc2)cc1SCC(F)(F)F` [Ia-223], for which the pest or weed control at 500 g/ha was 90%.

In the case of `CCN/C(=N\c1cc(SCC(F)(F)F)c(C)cc1C)c1cccnc1` [Ia-224], the pest or weed control at 500 g/ha was determined as 100%.

`Cc1cc(F)c(/N=C(\N)C(C)C)cc1SCC(F)(F)F` [Ia-225]: the pest or weed control at 500 g/ha was 100%.

Turning to `CN/C(=N/c1cc(SCC(F)(F)F)c(C)cc1F)C(F)(F)F` [Ia-226], the pest or weed control at 500 g/ha came out at 100%.

As for `CCN(C)/C(=N\c1cc(SCC(F)(F)F)c(C)cc1C)c1ccc(Cl)nc1` [Ia-227], the pest or weed control at 500 g/ha amounted to 100%.

`Cc1cc(F)c(/N=C(/c2ccccc2Cl)N2CCOCC2)cc1SCC(F)(F)F` [Ia-230]: the pest or weed control at 500 g/ha stood at 100%.

With `CCN(C)/C(=N\c1cc(SCC(F)(F)F)c(C)cc1C)c1ccc(Cl)cc1` [Ia-231], the pest or weed control at 500 g/ha worked out at 90%.

For the compound `Cc1cc(C)c(SCC(F)(F)F)cc1/N=C(\NC1CC1)c1ccc(Cl)nc1` [Ia-232], the pest or weed control at 500 g/ha was 90%.
